# Legend:
# [1] = Open-label multiple-dose PK, safety and tolerability study of NTZ 500 mg BID for 7 days in subjects with moderate or severe hepatic impairment vs normal hepatic function; conditions: for Cmax: Cmax GM; for AUC0-12 GM Ratio (Impaired/Control) / AUC0-t GM Ratio (Impaired/Control) / Cmax GM Ratio (Impaired/Control): steady state; for correlation coefficient AUC0-12 vs ALT / correlation coefficient AUC0-12 vs AST / correlation coefficient AUC0-12 vs Albumin / correlation coefficient AUC0-12 vs Bilirubin / correlation coefficient AUC0-12 vs INR / correlation coefficient Cmax vs ALT / correlation coefficient Cmax vs AST / correlation coefficient Cmax vs Albumin / correlation coefficient Cmax vs Bilirubin / correlation coefficient Cmax vs INR: highest among Pearson (P) and Spearman (S), natural (NS) and log (LS) scales, marker at screening
# Method: The study design was an open-label, nonrandomized, 2-center, multiple-dose, parallel-group study to evaluate the PK as well as the safety and tolerability of NTZ 500 mg BID administration for 7 days in males and females patients with moderate and severe hepatic impairment as compared to matched control healthy males and females patients with normal hepatic function.
# The objective was to assess the effect of hepatic impairment on the PK of tizoxanide (TZ; NTZ active metabolite), following repeated oral dose administration of NTZ 500 mg BID for 7 days in subjects with moderate or severe hepatic impairment and subjects with normal hepatic function.
# The following parameters used to measure the hepatic function were considered for the evaluation of the degree of hepatic impairment on NTZ PK: Child-Pugh (CP) score (*), serum albumin, serum total bilirubin, international normalized ratio (INR), aspartate aminotransferase (AST), alanine aminotransferase (ALT).
# (*) For the control match healthy subject group, CP score was not calculated, and the analysis was limited to hepatic impaired patients.
# Subjects were enrolled within the following groups based on their CP score at Screening: • Group 1: Normal hepatic function • Group 2: Moderate hepatic impairment (CP Class B) • Group 3: Severe hepatic impairment (CP Class C)
# On Day 1, the study subjects took 500 mg NTZ (1 tablet) with 240 mL (8 fluid ounces) of water 30 minutes after the start of the standardized breakfast. No food was allowed for at least 4 h after each dose. Blood PK samples were taken at the following timepoints: pre-dose (completed in fasted state prior to the start of the standardized breakfast), T1h, T2h, T3h, T4h, T5h, T6h, T7h, T8h, T10h and T12h post-dose.
# From Day 2 to Day 6, subjects received 500 mg of nitazoxanide (1 tablet) in the morning and in the evening for 6 consecutive days and on Day 7 the last dose was administered in the morning. Pre-dose blood PK sample was collected in fasted state prior to the start of the standardized breakfast each morning from Day 2 to Day 6.
# On Day 7, blood PK samples were taken at the following timepoints: Pre-dose (completed in fasted state prior to the start of the standardized breakfast), T1h, T2h, T3h, T4h, T5h, T6h, T7h, T8h, T10h, T12h, T14h and T16h post-dose. PK samples at T18h, T24h and T48h post dose were taken respectively on D8 and D9.
# The primary analysis was to assess the difference in the PK parameters (Cmax, AUC0-12 and AUC0-t) of total TZ after repeated oral administration of NTZ 500 mg BID for 7 days in subjects with moderate or severe hepatic impairment and subjects with normal hepatic function.
# The secondary analysis was to determine the accumulation ratios on AUC0-12 and Cmax measured after a single (Day 1) and a 7-day repeated (BID) oral administrations.
# The relationship between hepatic function markers (serum albumin, serum total bilirubin, INR, AST and ALT (obtained at screening)) and PK parameters (Cmax and AUC0-12) for TZ and TZ Glu (total and unbound) were investigated and evaluated using graphical and correlation techniques.
# Both Pearson (supporting a linear trend) and Spearman correlation (supporting a monotonic trend) coefficients were calculated. The correlation coefficients (p) were used to measure appropriately the association for most possible relationship and only strong correlations (i.e. p≥0.75) would support further modeling.
# [2] = tested on: BDL+LPS-induced liver impairment rat model; test: Evaluation of NTZ efficacy on BDL+LPS-induced liver impairment in rats; type: in vivo, Sprague Dawley rats
# Method: The objective of the study was to assess the efficacy of NTZ to prevent LPS-induced inflammation, hepatic dysfunction and brain edema in fibrotic rats that underwent BDL surgery. BDL surgery was performed on 30 Sprague Dawley rats (Janvier). After anesthesia, a median laparotomy was performed to expose the liver and duodenum. The main bile duct was identified and dissected. After that, the bile duct was ligated in two parts: a first ligation was made in the middle of the bile duct, and the second ligation was made above the entrance of the pancreatic duct. The bile duct was then cut in the middle, to avoid recanalization. Fourteen days after surgery, a blood sample was collected from the sublingual vein to measure markers of hepatic injury (serum aspartate aminotransferase (AST), total bile acids and bilirubin) to stratify the animals into treatment groups. […] Two unoperated animals were included in the study as healthy controls. […] Nine rats with BDL received phosphate buffer saline (PBS, Fisher Scientific, USA) instead of LPS to be used as BDL controls. The body weight and food intake were monitored twice a week all along the study. During the fibrosis induction phase, each animal was observed once a day for the monitoring of clinical signs. Observations include changes in the skin, fur, eyes, occurrence of secretions and excretions and autonomic activity (lachrymation, piloerection, unusual respiratory pattern). Changes in gait, posture, stereotypes (e.g. excessive grooming, repetitive circling) or bizarre behavior (self-mutilation, walking backward) are also monitored. Animals were euthanized in case of weight loss of more than 25% for more than 3 consecutive days, absence of food consumption, deterioration of the general condition or vocalization. After LPS administration, each animal was continuously observed (appearance of the animal-change in fur, skin color, the degree of activity, vigilance-response to a stimulus, opening of the eyelids, activity, gait and behaviour) during 7 hours in order to assess the degree of severity of the inflammatory response and pain. Treatment with NTZ 100 mg/kg or vehicle (1% carboxymethylcellulose ([…], Sigma-Aldrich), 0.1% tween 80 ([…], Sigma-Aldrich)) was administered by gavage 1 hour before LPS injection. For oral gavage, NTZ powder was dissolved in CMC 1%, Tween 80 0.1% at the concentration of 10 mg/ml in an amber glass bottle, homogenized with a polytron and sonicated 10 seconds at a power of 10%. NTZ was kept under magnetic stirring until the administration to the rats at 10 ml/kg. LPS solution was prepared under a microbiological safety cabinet, in order to have a sterile solution to inject to rats. The LPS solution was dissolved in phosphate buffer saline (PBS) at 0.5 μg/ml, aliquoted and frozen until the day of experiment. LPS was administered at 2 ml/kg to the rats. All surviving animals were euthanized 3 h after LPS injection for plasma and tissues analyses. At the end of the study, by plasma level of hepatic function markers and cytokines, and brain edema have been evaluated.
# [3] = total TZ, all groups combined, listed as Total TZ
# [4] = total TZ, Moderate (CP B) vs Control
# [5] = total TZ, Severe (CP C) vs Control
# [6] = NTZ 100 mg/kg by gavage 1 hour before LPS, blood collected 3 hours after LPS
structure (smiles),measurement,setting,value
"O=C(Nc1ncc([N+](=O)[O-])s1)c1ccccc1O [TZ, tizoxanide]",fraction of the dose recovered in urine over 12 h,"[1]; Day 1 and Day 7, regardless of the group",less than 1%
same,Tmax,"[1]; both, human, blood, oral, 500 mg",3.5 to 5 h
same,AUC(0-t),"[1]; both, human, blood, oral, 500 mg, AUC0-12 GM, total TZ, all groups combined (Total), DAY 1, single 500 mg NTZ dose",115 µM·h
same,AUC(0-t),"[1]; both, human, blood, oral, 500 mg, AUC0-12 GM, total TZ, all groups combined (Total), DAY 7, NTZ 500 mg BID",183 µM·h
same,AUC(0-t),"[1]; both, human, blood, oral, 500 mg, AUC0-12 GM, total TZ, steady state after NTZ 500 mg BID 7 days, Moderate (CP B)",145 µM·h
same,AUC(0-t),"[1]; both, human, blood, oral, 500 mg, AUC0-12 GM, total TZ, steady state after NTZ 500 mg BID 7 days, Severe (CP C)",264 µM·h
same,AUC(0-t),"[1]; both, human, blood, oral, 500 mg, AUC0-t GM, total TZ, steady state after NTZ 500 mg BID 7 days, Control group (normal hepatic function)",165 µM·h
same,AUC(0-t),"[1]; both, human, blood, oral, 500 mg, AUC0-t GM, total TZ, steady state after NTZ 500 mg BID 7 days, Moderate (CP B)",150 µM·h
same,AUC(0-t),"[1]; both, human, blood, oral, 500 mg, AUC0-t GM, total TZ, steady state after NTZ 500 mg BID 7 days, Severe (CP C)",297 µM·h
same,Cmax,"[1]; both, human, blood, oral, 500 mg, total TZ, all groups combined (Total), DAY 1, single 500 mg NTZ dose",24.8 µM
same,Cmax,"[1]; both, human, blood, oral, 500 mg, total TZ, all groups combined (Total), DAY 7, NTZ 500 mg BID",34.7 µM
same,Cmax,"[1]; both, human, blood, oral, 500 mg, total TZ, steady state after NTZ 500 mg BID 7 days, Control group (normal hepatic function)",35.3 µM
same,Cmax,"[1]; both, human, blood, oral, 500 mg, total TZ, steady state after NTZ 500 mg BID 7 days, Moderate (CP B)",28.2 µM
same,Cmax,"[1]; both, human, blood, oral, 500 mg, total TZ, steady state after NTZ 500 mg BID 7 days, Severe (CP C)",42 µM
same,half-life,"[1]; both, human, blood, oral, 500 mg, GM t1/2, Day 1",~2 h
same,half-life,"[1]; both, human, blood, oral, 500 mg, GM t1/2, Day 7, severe impairment group",4 h
same,AUC(0-t),"[1]; both, human, in vivo, oral, 500 mg, AUC0-12 GM, total TZ, steady state after NTZ 500 mg BID 7 days, Control group (normal hepatic function)",162 µM·h
same,CL renal,"[1]; both, human, urine, oral, 500 mg",0.0333 to 0.5 mL/min
same,AUC0-12 accumulation GM Ratio (Day 7/Day 1),[1]; [3],1.5980
same,Cmax accumulation GM Ratio (Day 7/Day 1),[1]; [3],1.3993
same,Cmax accumulation GM Ratio (Day 7/Day 1),"[1]; total TZ, all groups combined, listed as total TZ",around 1.4
same,AUC0-12 GM Ratio (Impaired/Control),[1]; [4],0.8960
same,AUC0-t GM Ratio (Impaired/Control),[1]; [4],0.9064
same,Cmax GM Ratio (Impaired/Control),[1]; [4],0.8008
same,AUC0-12 GM Ratio (Impaired/Control),[1]; [5],1.6353
same,AUC0-t GM Ratio (Impaired/Control),[1]; [5],1.7940
same,Cmax GM Ratio (Impaired/Control),"[1]; total TZ, Severe (CP C) vs Control, listed as Total TZ",1.1921
same,Cmax GM Ratio (Impaired/Control),"[1]; total TZ, Severe (CP C) vs Control, listed as total TZ",1.19
same,correlation coefficient AUC0-12 vs ALT,[1]; total analyte,P (LS): −0.07
same,correlation coefficient AUC0-12 vs AST,[1]; total analyte,P (NS): 0.17
same,correlation coefficient AUC0-12 vs Albumin,[1]; total analyte,P (NS): −0.4
same,correlation coefficient AUC0-12 vs Bilirubin,[1]; total analyte,P (NS): 0.43
same,correlation coefficient AUC0-12 vs INR,[1]; total analyte,P (NS): 0.46
same,correlation coefficient Cmax vs ALT,[1]; total analyte,P (LS): −0.17
same,correlation coefficient Cmax vs AST,[1]; total analyte,P (LS): −0.05
same,correlation coefficient Cmax vs Albumin,[1]; total analyte,P (NS): −0.25
same,correlation coefficient Cmax vs Bilirubin,[1]; total analyte,P (NS): 0.47
same,correlation coefficient Cmax vs INR,[1]; total analyte,P (NS): 0.46
same,correlation coefficient AUC0-12 vs ALT,[1]; unbound (u-) analyte,P (LS): −0.06
same,correlation coefficient AUC0-12 vs AST,[1]; unbound (u-) analyte,P (NS): 0.15
same,correlation coefficient AUC0-12 vs Albumin,[1]; unbound (u-) analyte,P (NS): −0.37
same,correlation coefficient AUC0-12 vs Bilirubin,[1]; unbound (u-) analyte,P (NS): 0.47
same,correlation coefficient AUC0-12 vs INR,[1]; unbound (u-) analyte,P (NS): 0.5
same,correlation coefficient Cmax vs ALT,[1]; unbound (u-) analyte,P (LS): −0.15
same,correlation coefficient Cmax vs AST,[1]; unbound (u-) analyte,S (NS): −0.09
same,correlation coefficient Cmax vs Albumin,[1]; unbound (u-) analyte,P (NS): −0.24
same,correlation coefficient Cmax vs INR,[1]; unbound (u-) analyte,P (NS): 0.49
same,correlation coefficient Cmax vs Bilirubin,"[1]; unbound (u-) analyte, listed as u-Tizoxanide",P (NS): 0.51
same,correlation coefficient Cmax vs Bilirubin,"[1]; unbound (u-) analyte, listed as unbound TZ",0.51
"CC(=O)Oc1ccccc1C(=O)Nc1ncc([N+](=O)[O-])s1 [NTZ, nitazoxanide]",safety in patients with hepatic impairment,[1]; NTZ 500 mg BID for 7 days,safe
same,brain edema: change of brain water content compared to the BDL condition,"[2]; NTZ 100 mg/kg by gavage 1 hour before LPS, 3 h after LPS, p=0.006",−111%
same,decrease of circulating IL-1β,[2]; [6],91%
same,decrease of circulating IL-6,[2]; [6],93%
same,decrease of circulating TNFα,[2]; [6],94%
same,percentage of liver fibrosis,"[2]; NTZ 100 mg/kg by gavage 1 hour before LPS, euthanized 3 h after LPS, data not shown",Neither LPS nor NTZ treatment affected the percentage of liver fibrosis
same,"LPS-induced alteration of plasma total bile acids, total bilirubin, albumin and GGT","[2]; NTZ 100 mg/kg by gavage 1 hour before LPS, plasma 3 h after LPS",tended to reduce the LPS-induced alteration of these markers
same,reduction of plasma urea (LPS-induced renal impairment),"[2]; NTZ 100 mg/kg by gavage 1 hour before LPS, plasma 3 h after LPS, p=0.007",84%
same,reduction of plasma ASAT compared to the ACLF-Veh condition,"[2]; NTZ 100 mg/kg by gavage 1 hour before LPS, plasma 3 h after LPS, p=0.01",100%
same,reduction of plasma ALAT compared to the ACLF-Veh condition,"[2]; NTZ 100 mg/kg by gavage 1 hour before LPS, plasma 3 h after LPS, p=0.03",101%
same,"LPS-induced rise in ALT, change with NTZ","[2]; NTZ 100 mg/kg, conclusions",−101%
same,"LPS-induced rise in AST, change with NTZ","[2]; NTZ 100 mg/kg, conclusions",−100%
same,"LPS-induced rise in urea, change with NTZ","[2]; NTZ 100 mg/kg, conclusions",−84%
same,brain edema: water content (in words),"[2]; NTZ 100 mg/kg, conclusions",totally restored the water content to the level of BDL and healthy rats

# — patent US20260124182A1, “NITAZOXANIDE FOR THE TREATMENT OF HEPATIC IMPAIRMENT” (GENFIT, priority 2022, published 2026)
